Experimental data: patent US5478854A, “Deoxy taxols” (Bristol-Myers Squibb Company, priority 1994, dated 1995)
pIC50: −log10 of the molar value. Like-named read-outs stand apart in the source and are kept apart here.

Columns and labels:
[1] = test system: human colon carcinoma cells HCT-116; test: In vitro cytotoxicity (XTT assay), 72 h, HCT-116 human colon carcinoma cells; format: cell-based; conditions: read-out: IC50, drug concentration required to inhibit cell proliferation to 50% of untreated control
[2] = test system: human colon carcinoma cells HCT-116/VM46; test: In vitro cytotoxicity (XTT assay), 72 h, HCT-116/VM46 multi-drug resistant cells; format: cell-based; conditions: for pIC50: Homo sapiens, read-out: IC50, drug concentration required to inhibit cell proliferation to 50% of untreated control
[3] = test system: advanced cases of ovarian, breast, and other cancers; conditions: NCI trials; cited from earlier work
[4] = HCT-116/VM46 vs HCT-116, value in parentheses, 4320 min
[5] = HCT-116/VM46 (teniposide-selected, multi-drug resistant), XTT, 72 h

Row | Compound | pIC50 ([1]; HCT-116, XTT, 72 h) | fold resistance relative to HCT116 cells [2, 4] | pIC50 [2, 5] | pIC50 ([1]; HCT-116, 72 h) | pIC50 ([2]; HCT-116/VM46, 72 h) | fold resistance relative to HCT116 cells ([2]; human, hct-116/vm46 vs hct-116, 4320 min) | clinical results in advanced cancers (in words) [3]
1 | CC(=O)O[C@H]1C(=O)[C@]2(C)CC[C@H]3OC[C@@]3(OC(C)=O)[C@H]2[C@H](OC(=O)c2ccccc2)[C@]2(O)C[C@H](OC(=O)[C@H](O)[C@@H](NC(=O)OC(C)(C)C)c3ccccc3)C(C)=C1C2(C)C [Ia, N-Debenzoyl-N-t-butoxycarbonyl-7-deoxytaxol] | 8.70 | 3.5 fold | 8.15 | – | – | – | –
2 | CC(=O)O[C@H]1C(=O)[C@]2(C)CC[C@H]3OC[C@@]3(OC(C)=O)[C@H]2[C@H](OC(=O)c2ccccc2)[C@]2(O)C[C@H](OC(=O)[C@H](O)[C@@H](NC(=O)c3ccccc3)c3ccccc3)C(C)=C1C2(C)C [Ib, 7-Deoxytaxol] | 8.40 | 14 fold | 7.26 | – | – | – | –
3 | CC(=O)O[C@@]12CO[C@@H]1CC[C@@]1(C)C(=O)CC3=C(C)[C@@H](OC(=O)[C@H](O)[C@@H](NC(=O)OC(C)(C)C)c4ccccc4)C[C@@](O)([C@@H](OC(=O)c4ccccc4)[C@H]21)C3(C)C [Ic, N-Debenzoyl-N-t-butoxycarbonyl-7-deoxy-10-deoxy-10-desacetyloxytaxol] | – | – | – | 7.92 | – | – | –
4 | CC(=O)O[C@@]12CO[C@@H]1CC[C@@]1(C)C(=O)CC3=C(C)[C@@H](OC(=O)[C@H](O)[C@@H](NC(=O)c4ccccc4)c4ccccc4)C[C@@](O)([C@@H](OC(=O)c4ccccc4)[C@H]21)C3(C)C [Id, 7-Deoxy-10-desacetyloxytaxol] | – | – | – | 7.54 | – | – | –
5 | CC(=O)O[C@H]1C(=O)[C@@]2(C)[C@H]([C@H](OC(=O)c3ccccc3)[C@]3(O)C[C@H](OC(=O)[C@H](O)[C@@H](NC(=O)c4ccccc4)c4ccccc4)C(C)=C1C3(C)C)[C@]1(OC(C)=O)CO[C@@H]1C[C@@H]2O [Taxol] | – | – | – | 8.40 | 6.36 | 124 fold | promising results
6 | CC(=O)O[C@@]12CO[C@@H]1C[C@H](O)[C@@]1(C)C(=O)[C@H](O)C3=C(C)[C@@H](OC(=O)[C@H](O)[C@@H](NC(=O)OC(C)(C)C)c4ccccc4)C[C@@](O)([C@@H](OC(=O)c4ccccc4)[C@H]21)C3(C)C [taxotere, reference compound] | 8.40 | 53 fold | 6.67 | – | – | – | –
